Data as given in patent US8481740B2, “Imidazo[1,2 a] pyridine-6-carboxamide derivatives, their use for the treatment of colon cancer and their method of manufacture” (University of the Witwatersrand, Johannesburg, priority 2009, dated 2013).
Read-outs that look alike come from different tables or passages of the source.

What was measured:
white blood cells = assay: MTT cell viability assay, white blood cells; type: cell-based
Method: Cell viability was determined by the MTT assay after the white blood cells were exposed to the novel compounds for 24 hours at an initial concentration of 100 μM. Camptothecin was used as a positive control for cytotoxicity.

caspase 3 in HT-29 cells = assay: Caspase 3 colorimetric assay, HT-29 lysates; type: cell-based, human; settings: for time at which high caspase 3 levels were observed / time of maximal caspase 3 expression: time of exposure; for initiation of apoptosis compared with camptothecin: from caspase 3 levels
Method: (§1) As it is well known that caspases play a vital role in the execution of apoptosis, the level of caspase 3 and caspase 8 enzymatic activity in the cell lysates were determined using a caspase 3 and caspase 8 colorimetric assay kit (FIGS. 3A and B). Maximal caspase 8 expression in HT-29 cells was observed within 2 hours of exposure to all the CDK compounds. […] Maximal caspase 3 expression in the HT-29 cells was observed after 8 hours of exposure to 7 and 13, and 4 hours of exposure to 12. Maximal caspase 8 expression in the HT-29 cells was observed within 2 hours of exposure to 14, 4 and 6, and within 4 hours after exposure to 3. Maximal caspase 3 expression in the HT-29 cells was observed after 2 hours of exposure to 4 and 6, and after 4 hours of exposure to 14 and 3.
(§2) The activation of caspases initiates apoptosis in mammalian cells. Caspase 3 and Caspase 8 were detected using the CPP32 and FLICE colorimetric Assay kits, respectively. The following method (obtained from Biovision research products) was performed.
(§3) The treated HT-29 and Caco-2 cells were harvested and resuspended in 50 μl of chilled cell lysis buffer and incubated on ice for 10 minutes. The cells were centrifuged for 1 minute (10000 g) and the supernatant (cytosolic extract) was transferred to a fresh tube and placed on ice. The protein concentration was assayed using the Biorad assay method. 100-200 μg protein to 50 μl cell lysis buffer was diluted for each assay. 50 μl of 2× Reaction buffer (containing 10 mM DTT) was added to each sample. 5 μl of 4 mM IETD-pNA substrate for Caspase 8 and 5 μl of 4 mM DEVD-pNA substrate for Caspase 3 was added to each sample and incubated at 37° C. for 1-2 hours. The samples were read at 405 nm in the microtiter plate reader. Time dependent studies were performed for protease activity by attaining results 2, 4, 6, 12, and 24 hours after treatment with the compounds.

caspase 8 in HT-29 cells = assay: Caspase 8 colorimetric assay, HT-29 lysates; type: cell-based, human; settings: time of exposure
Method: as §1, §2
The treated HT-29 and Caco-2 cells were harvested and resuspended in 50 μl of chilled cell lysis buffer and incubated on ice for 10 minutes. The cells were centrifuged for 1 minute (10000 g) and the supernatant (cytosolic extract) was transferred to a fresh tube and placed on ice. […] The samples were read at 405 nm in the microtiter plate reader. […]

[1] = test system: caspase 3 in Caco-2 cells; assay: Caspase 3 colorimetric assay, Caco-2 lysates; type: cell-based, human; settings: time of exposure
Method: as §1, §2, §3

HT-29 cell line = assay: MTT cell viability assay, HT-29; type: cell-based, human; settings: read-out: IC50 (molar concentration that inhibited growth by 50%), 24 hours, 5 μM to 100 μM
Method: (§4) The colon cancer cells were initially exposed to the different imidazo[1,2-a]pyridines compounds at 100 μM (final concentration in the well) at 37° C. for 24 hours using an MTT assay for cell viability quantification.
(§5) The HT-29 and Caco-2 cells were exposed to the novel imidazo[1,2-a]pyridine class of compounds according to the invention in concentrations ranging from 5 μM to 100 μM for 24 hours.
(§6) The study made use of two colonic carcinoma cell lines, namely the HT-29 and Caco-2 cell lines. The HT-29 and Caco-2 cell lines were obtained from Highveld Biological, South Africa. Both cell lines were cultured in Dulbecco's Modified Eagles Medium (DMEM) (Highveld Biological, South Africa) and supplemented with 5% heat-inactivated heat-inactivated foetal bovine serum (FBS). 1 ml 10 kU penicillin G/10 mg streptomycin sulphate (pen/strep) (Highveld Biological, South Africa) and 0.4% 100 mM sodium pyruvate per 500 ml DMEM were added after filter sterilisation.
The two colon cancer cells were counted and diluted into fresh media at concentrations of 30 000 cells/well and an aliquot of 180 μl was seeded to each well in a 96-well plate. The plates were then placed in an incubator (37° C., 5% CO2, volume fraction) and the cells were allowed to divide for a period of 24 hours.
The cells were exposed to the different classes of synthetic compounds at 100 μM (final concentration in the well) at 37° C. for 24 hours using an MTT assay for cell viability quantification. After the 24 hour incubation, the plates were removed from the incubator, and an aliquot of 50 μl 0.5% MTT (USB, USA) in 1 mM PBS (pH 7.4) was layered on the media. The plates were incubated for 2 hours at 37° C. The plates were than centrifuged at 3000 rpm (Afrox Sorvall T 6000D) for 5 minutes. Following centrifugation, the medium was very carefully aspirated. Formazan crystals were dissolved in 200 μl DMSO. The absorbance was then read at 540 nm using the Absorbance Labsystems Multiskan MS, version 2.4. The controls used in the assay consisted of i) medium alone without cells, ii) medium with or without the tested compounds and iii) medium with Camptothecin.
Compounds showing cytotoxicity at a concentration of 100 μM were further diluted to obtain an IC50 concentration. All tests were performed in triplicate.

HT-29 cells = settings: 100 μM, 24 hours
Method: (§7) The dysfunction of the mitochondria is believed to be an important step in the commitment of the cell to apoptosis. To assess whether disruption of the mitochondrial transmembrane potential (Δψ) was involved in the apoptotic action of the novel imidazo[1,2-a]pyridines, the HT-29 and Caco-2 cells were treated for 24 hours with 100 μM of the novel compounds and then analysed by flow cytometry by using the cationic fluorescent dye 5,5′,6,6′-tetrachloro-1,1′,3,3′-tetraethylbenzimidazolcarbocyanine iodide (JC-1) to measure mitochondrial membrane depolarization in intact viable cells.
(§8) When energy is released during the oxidation reactions in the mitochondrial respiratory chain, it is stored as a negative electrochemical gradient across the mitochondrial membrane. Under these situations, the mitochondrial membrane potential (Δψ) is polarized. During the early stages of apoptosis, a collapse of the Δψ which results in a depolarized Δψ, is sometimes noticed. […] The changes in Δψ have also been noticed during necrosis (depolarisation) and cell cycle arrest (hyperpolarisation). Understanding the Δψ and how it alters during apoptosis and necrosis, may assist in determining the function of the mitochondria in these and other cellular processes. […]

Caco-2 cells = assay: JC-1 mitochondrial membrane potential flow cytometry, Caco-2; type: cell-based, human; settings: 100 μM, 24 hours
Method: as §7, §8

Caco-2 cell line = assay: MTT cell viability assay, Caco-2; type: cell-based; settings: Homo sapiens, read-out: IC50 (molar concentration that inhibited growth by 50%), 24 hours, 5 μM to 100 μM
Method: as §4, §5
as §6, with “1 ml 10 kU penicillin G/10 mg streptomycin sulphate (pen/strep) (Highveld Biological, South Africa) and 0.4% 100 mM sodium pyruvate per 500 ml DMEM were added after filter sterilisation.” left out
The two colon cancer cells were counted and diluted into fresh media at concentrations of 30 000 cells/well and an aliquot of 180 μl was seeded to each well in a 96-well plate. […]
The cells were exposed to the different classes of synthetic compounds at 100 μM (final concentration in the well) at 37° C. for 24 hours using an MTT assay for cell viability quantification. […] The absorbance was then read at 540 nm using the Absorbance Labsystems Multiskan MS, version 2.4. […]

COc1ccc(-c2nc3ccc(C)cn3c2Nc2c(C)cccc2C)cc1OC [Compound 3]
White Blood Cell Viability % (white blood cells; 100 µM): 76.176 ± 0.567% | time at which high caspase 3 levels were observed (caspase 3 in HT-29 cells): 4 h | time of maximal caspase 3 expression (caspase 3 in HT-29 cells): 4 h | time of maximal (peak) caspase 8 expression (caspase 8 in HT-29 cells): ≤ 4 h | time at which high caspase 3 levels were observed [1]: 4 h

COc1ccc(OC)c(-c2nc3ccc(Br)cn3c2NCc2ccccc2)c1 [Compound 4]
White Blood Cell Viability % (white blood cells; 100 µM): 88.943 ± 1.996% | initiation of apoptosis compared with camptothecin (caspase 3 in HT-29 cells): earlier stage than camptothecin | time at which high caspase 3 levels were observed (caspase 3 in HT-29 cells): 2 h | time of maximal caspase 3 expression (caspase 3 in HT-29 cells): 2 h | time at which high caspase 3 levels were observed [1]: 2 h

COc1ccc(-c2nc3ccc(Br)cn3c2Nc2c(C)cccc2C)cc1OC [Compound 6]
White Blood Cell Viability % (white blood cells; 24 h, 100 µM): 83.762 ± 1.389% | initiation of apoptosis compared with camptothecin (caspase 3 in HT-29 cells): earlier stage than camptothecin | time at which high caspase 3 levels were observed (caspase 3 in HT-29 cells): 2 h | time of maximal caspase 3 expression (caspase 3 in HT-29 cells): 2 h | time at which high caspase 3 levels were observed [1]: 2 h

NC(=O)c1ccc2nc(-c3ccc(OCc4ccccc4)cc3OCc3ccccc3)c(NC3CCCCC3)n2c1 [Compound 7]
IC50 (HT-29 cell line): 9.2 ± 0.83 µM | White Blood Cell Viability % (white blood cells; 100 µM): 93.834 ± 0.271% | time of maximal caspase 3 expression (caspase 3 in HT-29 cells): 8 h | cells undergoing apoptosis (JC-1) (HT-29 cells): 79.62% | healthy cells remaining after treatment (JC-1) (HT-29 cells): 20.33%

COc1ccc(-c2nc3ccc(Br)cn3c2Nc2c(C)cccc2C)c(OC)c1 [Compound 12]
IC50 (HT-29 cell line; Homo sapiens): 22 ± 1.17 µM | White Blood Cell Viability % (white blood cells; 24 h, 100 µM): 96.311 ± 5.023% | time of maximal caspase 3 expression (caspase 3 in HT-29 cells): 4 h | cells undergoing apoptosis (JC-1), average (Caco-2 cells): 81.91%

COc1ccc(-c2nc3ccc(C)cn3c2Nc2c(C)cccc2C)c(OC)c1 [Compound 13]
IC50 (HT-29 cell line): 10 ± 2.69 µM | White Blood Cell Viability % (white blood cells; 100 µM): 97.479 ± 1.178% | time of maximal caspase 3 expression (caspase 3 in HT-29 cells): 8 h

COc1ccc(-c2nc3ccc(-c4ccccc4)cn3c2Nc2c(C)cccc2C)cc1OC [Compound 14]
White Blood Cell Viability % (white blood cells; 24 h, 100 µM): 77.345 ± 1.005% | initiation of apoptosis compared with camptothecin (caspase 3 in HT-29 cells): earlier stage than camptothecin | time at which high caspase 3 levels were observed (caspase 3 in HT-29 cells): 2 h | time of maximal caspase 3 expression (caspase 3 in HT-29 cells): 4 h | time at which high caspase 3 levels were observed [1]: 2 h

CC[C@@]1(O)C(=O)OCc2c1cc1n(c2=O)Cc2cc3ccccc3nc2-1 [camptothecin, reference compound]
IC50 (HT-29 cell line; Homo sapiens): 9.99 ± 1.41 µM | White Blood Cell Viability % (white blood cells; 100 μM, 24 hours, MTT): 33.782 ± 2.031% | IC50 (Caco-2 cell line): 9.55 ± 2.21 µM
